From patent publication US8771665B2 (Cocrystal Discovery, Inc., priority 2010, dated 2014)

Biological target: T1, HCV1b NS5B polymerase delta 21 (Hepatitis C virus genotype 1b, UniProt P26663)
T1 construct: purified HCV1b NS5B polymerase delta 21
Assay: RNA-Dependent RNA HCV NS5B (Polymerase) Assay and IC50 Determination
Format: biochemical
Method: RNA-Dependent RNA HCV NS5B (Polymerase) Assay and IC50 Determination
In vitro RNA-dependent RNA polymerase activity was determined in a reaction mixture (50 μL) containing 50 mM Tris-HCl, pH 7.5, 5 mM MgCl2, 1 mM dithiothreitol, 0.5% Triton® X-100, 10 μM of UTP, 0.1-0.5 μCi of α-^32P UTP (Perkin Elmer Life Sciences), 1 μg of polyA:U16 (Midland Oligo), and 0.6 μg of purified HCV1b NS5B polymerase delta 21. Different concentrations of compounds were added to the reaction mixtures. The reaction was carried out at RT (23° C.) for 60 min and then stopped by the addition of 100 μL of 50 mM EDTA. The reaction mixtures were filtered through either a DE81 membrane or a positively charged nylon membrane, and the membranes were then extensively washed with 30 mM sodium citrate, pH 7.0 and 300 mM NaCl. The radiolabeled RNA products were quantitated using a Storm™ Phosphorlmager™ (GE Life Sciences). IC50 values were calculated using GraFit 6 and GraphPad Prism 5 from triplicate assays.

T1 sequence (P26663 2420-2989): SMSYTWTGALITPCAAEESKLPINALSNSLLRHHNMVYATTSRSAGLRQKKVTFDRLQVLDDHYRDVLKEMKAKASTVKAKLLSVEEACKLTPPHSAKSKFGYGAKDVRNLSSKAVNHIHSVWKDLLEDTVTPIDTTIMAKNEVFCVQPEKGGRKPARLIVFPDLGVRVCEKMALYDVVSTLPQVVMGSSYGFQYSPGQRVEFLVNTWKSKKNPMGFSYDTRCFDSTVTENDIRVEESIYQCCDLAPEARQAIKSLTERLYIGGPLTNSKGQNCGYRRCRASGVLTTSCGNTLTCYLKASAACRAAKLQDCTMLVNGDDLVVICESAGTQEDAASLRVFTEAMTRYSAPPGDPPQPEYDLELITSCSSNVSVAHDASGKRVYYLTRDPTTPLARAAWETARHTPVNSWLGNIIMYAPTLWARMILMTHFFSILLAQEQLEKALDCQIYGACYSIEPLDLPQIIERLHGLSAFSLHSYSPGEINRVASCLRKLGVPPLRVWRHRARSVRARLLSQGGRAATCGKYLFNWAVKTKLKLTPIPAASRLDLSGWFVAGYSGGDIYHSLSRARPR

Compound: CCN1CCC(c2cc(-c3cccc(NC(=O)c4cccs4)c3)sc2C(=O)O)=C(C2CCC(C)CC2)C1 (centres unmarked) [Example 027, 3-[1-Ethyl-5-(4-methyl-cyclohexyl)-1,2,3,6-tetrahydro-pyridin-4-yl]-5-{3-[(thiophene-2-carbonyl)-amino]-phenyl}-thiophene-2-carboxylic acid]
- IC50: > 10 µM

Compound: CCN1CCC(c2cc(-c3ccc(NC(=O)c4cccs4)cc3)sc2C(=O)O)=C(C2CCC(C)CC2)C1 (centres unmarked) [Example 028, 3-[1-Ethyl-5-(4-methyl-cyclohexyl)-1,2,3,6-tetrahydro-pyridin-4-yl]-5-{4-[(thiophene-2-carbonyl)-amino]-phenyl}-thiophene-2-carboxylic acid]
- IC50: < 3 µM

Compound: CCN1CCC(c2cc(C#CCC(C)C)sc2C(=O)O)=C(C2CCC(C)CC2)C1 (centres unmarked) [Example 029, 3-[1-Ethyl-5-(4-methyl-cyclohexyl)-1,2,3,6-tetrahydro-pyridin-4-yl]-5-(4-methyl-pent-1-ynyl)-thiophene-2-carboxylic acid]
- IC50: < 3 µM

Compound: CCCC(C)C#Cc1cc(C2=C(C3CCC(C)CC3)CN(CC)CC2)c(C(=O)O)s1 (centres unmarked) [Example 030, 3-[1-Ethyl-5-(4-methyl-cyclohexyl)-1,2,3,6-tetrahydro-pyridin-4-yl]-5-(3-methyl-hex-1-ynyl)-thiophene-2-carboxylic acid]
- IC50: > 10 µM

Compound: CCN1CCC(c2cc(C#CC3CCCC3)sc2C(=O)O)=C(C2CCC(C)CC2)C1 (centres unmarked) [Example 031, 5-Cyclopentylethynyl-3-[1-ethyl-5-(4-methyl-cyclohexyl)-1,2,3,6-tetrahydro-pyridin-4-yl]-thiophene-2-carboxylic acid]
- IC50: 3 to 10 µM

Compound: CCCC#Cc1cc(C2=C(C3CCC(C)CC3)CN(CC)CC2)c(C(=O)O)s1 (centres unmarked) [Example 032, 3-[1-Ethyl-5-(4-methyl-cyclohexyl)-1,2,3,6-tetrahydro-pyridin-4-yl]-5-pent-1-ynyl-thiophene-2-carboxylic acid]
- IC50: < 3 µM

Compound: CCOC(C#Cc1cc(C2=C(C3CCC(C)CC3)CN(CC)CC2)c(C(=O)O)s1)OCC (centres unmarked) [Example 033, 5-(3,3-Diethoxy-prop-1-ynyl)-3-[1-ethyl-5-(4-methyl-cyclohexyl)-1,2,3,6-tetrahydro-pyridin-4-yl]-thiophene-2-carboxylic acid]
- IC50: 3 to 10 µM

Compound: CCN1CCC(c2cc(C#CCOC)sc2C(=O)O)=C(C2CCC(C)CC2)C1 (centres unmarked) [Example 034, 3-[1-Ethyl-5-(4-methyl-cyclohexyl)-1,2,3,6-tetrahydro-pyridin-4-yl]-5-(3-methoxy-prop-1-ynyl)-thiophene-2-carboxylic acid]
- IC50: < 3 µM

Compound: CCN1CCC(c2cc(-c3ccc(C(=O)O)cc3)sc2C(=O)O)=C(C2CCC(C)CC2)C1 (centres unmarked) [Example 035, 5-(4-Carboxy-phenyl)-3-[1-ethyl-5-(4-methyl-cyclohexyl)-1,2,3,6-tetrahydro-pyridin-4-yl]-thiophene-2-carboxylic acid]
- IC50: < 3 µM

Compound: Cc1ccc(S(=O)(=O)N2CCC(c3cc(-c4ccccc4)sc3C(=O)O)=C(C3CCC(C)CC3)C2)cc1 (centres unmarked) [Example 036, 3-[5-(4-Methyl-cyclohexyl)-1-(toluene-4-sulfonyl)-1,2,3,6-tetrahydro-pyridin-4-yl]-5-phenyl-thiophene-2-carboxylic acid]
- IC50: > 10 µM

Compound: CC1CCC(C2=C(c3cc(-c4ccccc4)sc3C(=O)O)CCN(C(=O)OC(C)(C)C)C2)CC1 (centres unmarked) [Example 037, 4-(2-Carboxy-5-phenyl-thiophen-3-yl)-5-(4-methyl-cyclohexyl)-3,6-dihydro-2H-pyridine-1-carboxylic acid tert-butyl ester]
- IC50: > 10 µM

Compound: CCOC(=O)N1CCC(c2cc(-c3ccccc3)sc2C(=O)O)=C(C2CCC(C)CC2)C1 (centres unmarked) [Example 038, 4-(2-Carboxy-5-phenyl-thiophen-3-yl)-5-(4-methyl-cyclohexyl)-3,6-dihydro-2H-pyridine-1-carboxylic acid ethyl ester]
- IC50: > 10 µM

Compound: CC1CCC(C2=C(c3cc(-c4ccccc4)sc3C(=O)O)CCN(S(C)(=O)=O)C2)CC1 (centres unmarked) [Example 039, 3-[1-Methanesulfonyl-5-(4-methyl-cyclohexyl)-1,2,3,6-tetrahydro-pyridin-4-yl]-5-phenyl-thiophene-2-carboxylic acid]
- IC50: > 10 µM

Compound: CC1CCC(C2=C(c3cc(-c4ccccc4)sc3C(=O)O)CCNC2)CC1 (centres unmarked) [Example 040, 3-[5-(4-Methyl-cyclohexyl)-1,2,3,6-tetrahydro-pyridin-4-yl]-5-phenyl-thiophene-2-carboxylic acid]
- IC50: < 3 µM

Compound: CC1CCC(C2=C(c3cc(-c4ccccc4)sc3C(=O)O)CN(C)CC2)CC1 (centres unmarked) [Example 041, 3-[1-Methyl-4-(4-methyl-cyclohexyl)-1,2,5,6-tetrahydro-pyridin-3-yl]-5-phenyl-thiophene-2-carboxylic acid]
- IC50: < 3 µM

Compound: CC1CCC(C2=C(c3cc(-c4ccc(NC(=O)c5ccccn5)cc4)sc3C(=O)O)CCN(C)C2)CC1 (centres unmarked) [Example 042, 3-[1-Methyl-5-(4-methyl-cyclohexyl)-1,2,3,6-tetrahydro-pyridin-4-yl]-5-{4-[(pyridine-2-carbonyl)-amino]-phenyl}-thiophene-2-carboxylic acid]
- IC50: < 3 µM

Compound: CC1CCC(C2=C(c3cc(-c4ccccc4)sc3C(=O)O)CCN(Cc3ccccc3)C2)CC1 (centres unmarked) [Example 043, 3-[1-Benzyl-5-(4-methyl-cyclohexyl)-1,2,3,6-tetrahydro-pyridin-4-yl]-5-phenyl-thiophene-2-carboxylic acid]
- IC50: 3 to 10 µM

Compound: CCN1CCC(c2cc(-c3ccccc3)sc2C(=O)O)=C(C2CCC(C)CC2)C1 (centres unmarked) [Example 044, 3-[1-Ethyl-5-(4-methyl-cyclohexyl)-1,2,3,6-tetrahydro-pyridin-4-yl]-5-phenyl-thiophene-2-carboxylic acid]
- IC50: < 3 µM

Compound: CC1CCC(C2=C(c3cc(-c4ccccc4)sc3C(=O)O)CCN(C(=O)c3cnccn3)C2)CC1 (centres unmarked) [Example 045, 3-[5-(4-Methyl-cyclohexyl)-1-(pyrazine-2-carbonyl)-1,2,3,6-tetrahydro-pyridin-4-yl]-5-phenyl-thiophene-2-carboxylic acid]
- IC50: < 3 µM

Compound: CN1CCC(c2cc(C#CC(C)(C)C)sc2C(=O)O)=C([C@H]2CC[C@H](C)CC2)C1 [Example 046, 5-(3,3-Dimethyl-but-1-ynyl)-3-[1-methyl-5-(4-methyl-cyclohexyl)-1,2,3,6-tetrahydro-pyridin-4-yl]-thiophene-2-carboxylic acid]
- IC50: < 3 µM

Compound: CN1CCC(c2cc(-c3ccc(NC(=O)c4cscn4)cc3)sc2C(=O)O)=C([C@H]2CC[C@H](C)CC2)C1 [Example 047, 3-[1-Methyl-5-(4-methyl-cyclohexyl)-1,2,3,6-tetrahydro-pyridin-4-yl]-5-{4-[(thiazole-4-carbonyl)-amino]-phenyl}-thiophene-2-carboxylic acid]
- IC50: < 3 µM

Compound: CCN1CCC(c2cc(-c3ccc(NC(=O)c4csc(C)n4)cc3)sc2C(=O)O)=C(C2CCC(C)CC2)C1 (centres unmarked) [Example 048, 3-[1-Ethyl-5-(4-methyl-cyclohexyl)-1,2,3,6-tetrahydro-pyridin-4-yl]-5-{4-[(2-methyl-thiazole-4-carbonyl)-amino]-phenyl}-thiophene-2-carboxylic acid]
- IC50: < 3 µM

Compound: CCN1CCC(c2cc(-c3ccc(NC(=O)c4ccsc4)cc3)sc2C(=O)O)=C(C2CCC(C)CC2)C1 (centres unmarked) [Example 049, 3-[1-Ethyl-5-(4-methyl-cyclohexyl)-1,2,3,6-tetrahydro-pyridin-4-yl]-5-{4-[(thiophene-3-carbonyl)-amino]-phenyl}-thiophene-2-carboxylic acid]
- IC50: < 3 µM
